Test results: article PMC2096529 (Purinergic Signalling, 2005)
pEC50: −log10 of the molar value.

Key:
Assay in all cases: Fluo-3 calcium mobilization, FLIPR, […]1 cells
Format in all cases: cell-based
human P2Y2 receptor = human P2Y2 receptor (Homo sapiens, UniProt P41231)
human P2Y6 receptor = human P2Y6 receptor (Homo sapiens, UniProt Q15077)
human P2Y4 receptor = human P2Y4 receptor (Homo sapiens, UniProt P51582)
Chain of human P2Y4 receptor (P51582 whole entry): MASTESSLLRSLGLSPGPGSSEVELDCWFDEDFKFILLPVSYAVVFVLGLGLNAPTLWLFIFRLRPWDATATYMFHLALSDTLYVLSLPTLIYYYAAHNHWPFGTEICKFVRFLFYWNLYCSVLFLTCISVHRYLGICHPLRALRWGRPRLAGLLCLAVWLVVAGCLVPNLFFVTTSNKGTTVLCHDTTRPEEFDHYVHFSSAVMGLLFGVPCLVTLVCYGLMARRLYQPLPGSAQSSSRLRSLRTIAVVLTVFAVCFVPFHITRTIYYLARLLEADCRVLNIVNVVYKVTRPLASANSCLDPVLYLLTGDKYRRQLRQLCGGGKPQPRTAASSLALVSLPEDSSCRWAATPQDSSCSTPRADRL

Chain of human P2Y2 receptor (P41231 whole entry): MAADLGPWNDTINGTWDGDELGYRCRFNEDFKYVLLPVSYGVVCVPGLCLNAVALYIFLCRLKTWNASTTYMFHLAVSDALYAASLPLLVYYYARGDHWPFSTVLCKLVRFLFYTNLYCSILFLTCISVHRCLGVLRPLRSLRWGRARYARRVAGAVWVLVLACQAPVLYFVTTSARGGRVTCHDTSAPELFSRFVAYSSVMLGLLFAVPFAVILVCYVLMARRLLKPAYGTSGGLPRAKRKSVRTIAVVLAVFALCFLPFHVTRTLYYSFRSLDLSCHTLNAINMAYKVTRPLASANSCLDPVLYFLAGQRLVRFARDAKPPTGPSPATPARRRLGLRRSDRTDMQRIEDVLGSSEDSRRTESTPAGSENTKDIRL
Chain of human P2Y6 receptor (Q15077 whole entry): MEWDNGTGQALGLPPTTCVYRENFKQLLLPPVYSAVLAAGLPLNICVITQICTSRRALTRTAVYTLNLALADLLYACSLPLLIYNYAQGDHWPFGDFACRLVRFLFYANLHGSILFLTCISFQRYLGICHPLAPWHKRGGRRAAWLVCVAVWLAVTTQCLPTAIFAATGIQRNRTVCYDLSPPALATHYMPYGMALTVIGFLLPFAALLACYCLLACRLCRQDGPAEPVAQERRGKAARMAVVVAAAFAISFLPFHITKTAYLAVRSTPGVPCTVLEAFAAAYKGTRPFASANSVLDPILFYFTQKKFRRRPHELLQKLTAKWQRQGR

Work on `Nc1ncnc2c1ncn2[C@@H]1O[C@H](COP(=O)(O)OP(=O)(O)OP(=O)(O)O)[C@@H](O)[C@H]1O` [ATP] yielded a pEC50 (human P2Y2 receptor) of 7.82.

`O=c1ccn([C@@H]2O[C@H](COP(=O)(O)OP(=O)(O)OC[C@H]3O[C@@H](n4ccc(=O)[nH]c4=O)[C@H](O)[C@@H]3O)[C@@H](O)[C@H]2O)c(=O)[nH]1` [compound 4, UP2U] was tested, and the pEC50 (human P2Y6 receptor) was 4.48.

`O=c1ccn([C@@H]2O[C@H](COP(=O)(O)OP(=O)(O)OP(=O)(O)O)[C@@H](O)[C@H]2O)c(=O)[nH]1` [compound 7, UTP] showed a pEC50 (human P2Y6 receptor) of 5.83, a pEC50 (human P2Y4 receptor) of 7.15 and a pEC50 (human P2Y2 receptor) of 7.82.

Work on `Nc1nc2c(ncn2[C@@H]2O[C@H](COP(=O)(O)OP(=O)(O)OC[C@H]3O[C@@H](n4ccc(=O)[nH]c4=O)[C@H](O)[C@@H]3O)[C@@H](O)[C@H]2O)c(=O)[nH]1` [compound 18, UP2G] yielded a pEC50 (human P2Y6 receptor) of 5.12, a pEC50 (human P2Y4 receptor) of 5.33 and a pEC50 (human P2Y2 receptor) of 5.68.

Compound `O=c1[nH]cnc2c1ncn2[C@@H]1O[C@H](COP(=O)(O)OP(=O)(O)OC[C@H]2O[C@@H](n3cnc4c(=O)[nH]cnc43)[C@H](O)[C@@H]2O)[C@@H](O)[C@H]1O` [compound 22, IP2I] has a pEC50 (human P2Y6 receptor) of under 5.00, a pEC50 (human P2Y4 receptor) of 5.30 and a pEC50 (human P2Y2 receptor) of 5.32.

Compound `Nc1ccn([C@@H]2O[C@H](COP(=O)(O)OP(=O)(O)OP(=O)(O)OC[C@H]3O[C@@H](n4ccc(=O)[nH]c4=O)[C@H](O)[C@@H]3O)[C@@H](O)[C@H]2O)c(=O)n1` [compound 31, UP3C] has a pEC50 (human P2Y6 receptor) of 6.28, a pEC50 (human P2Y4 receptor) of 4.78 and a pEC50 (human P2Y2 receptor) of 5.70.

With `Nc1nc2c(ncn2[C@@H]2O[C@H](COP(=O)(O)OP(=O)(O)OP(=O)(O)OC[C@H]3O[C@@H](n4ccc(=O)[nH]c4=O)[C@H](O)[C@@H]3O)[C@@H](O)[C@H]2O)c(=O)[nH]1` [compound 32, UP3G] the pEC50 (human P2Y6 receptor) was 6.42.

For `O=c1ccn([C@@H]2O[C@H](COP(=O)(O)OP(=O)(O)OP(=O)(O)OC[C@H]3O[C@@H](n4cnc5c(=O)[nH]cnc54)[C@H](O)[C@@H]3O)[C@@H](O)[C@H]2O)c(=O)[nH]1` [compound 33, UP3I], the pEC50 (human P2Y6 receptor) was 5.88 and the pEC50 (human P2Y2 receptor) was 5.35.

Work on `Nc1nc2c(ncn2[C@H]2C[C@H](O)[C@@H](COP(=O)(O)OP(=O)(O)OP(=O)(O)OC[C@H]3O[C@@H](n4ccc(=O)[nH]c4=O)[C@H](O)[C@@H]3O)O2)c(=O)[nH]1` [compound 34, UP3dG] yielded a pEC50 (human P2Y6 receptor) of 6.55, a pEC50 (human P2Y4 receptor) of 5.70 and a pEC50 (human P2Y2 receptor) of 6.33.

For `Nc1nc2c(ncn2[C@@H]2O[C@H](COP(=O)(O)OP(=O)(O)OP(=O)(O)OC[C@H]3O[C@@H](n4cnc5c(=O)[nH]cnc54)[C@H](O)[C@@H]3O)[C@@H](O)[C@H]2O)c(=O)[nH]1` [compound 37, IP3G], the pEC50 (human P2Y6 receptor) was under 5.00, the pEC50 (human P2Y4 receptor) was 5.19 and the pEC50 (human P2Y2 receptor) was under 5.00.

For `O=c1ccn([C@@H]2O[C@H](COP(=O)(O)OP(=O)(O)OP(=O)(O)OP(=O)(O)OC[C@H]3O[C@@H](n4ccc(=O)[nH]c4=O)[C@H](O)[C@@H]3O)[C@@H](O)[C@H]2O)c(=O)[nH]1` [compound 43, UP4U], the pEC50 (human P2Y6 receptor) was 4.61 and the pEC50 (human P2Y4 receptor) was 6.70.

For `Nc1ccn([C@@H]2O[C@H](COP(=O)(O)OP(=O)(O)OP(=O)(O)OP(=O)(O)OC[C@H]3O[C@@H](n4ccc(=O)[nH]c4=O)[C@H](O)[C@@H]3O)[C@@H](O)[C@H]2O)c(=O)n1` [compound 44, UP4C], the pEC50 (human P2Y6 receptor) was 4.92, the pEC50 (human P2Y4 receptor) was 6.07 and the pEC50 (human P2Y2 receptor) was 6.34.

`O=c1ccn([C@@H]2O[C@H](COP(=O)(O)OP(=O)(O)OP(=O)(O)OP(=O)(O)OC[C@H]3O[C@@H](n4cnc5c(=O)[nH]cnc54)[C@H](O)[C@@H]3O)[C@@H](O)[C@H]2O)c(=O)[nH]1` [compound 45, UP4I] showed a pEC50 (human P2Y6 receptor) of under 5.00, a pEC50 (human P2Y4 receptor) of 6.55 and a pEC50 (human P2Y2 receptor) of 6.28.

In the case of `Cc1cn([C@H]2C[C@H](O)[C@@H](COP(=O)(O)OP(=O)(O)OP(=O)(O)OP(=O)(O)OC[C@H]3O[C@@H](n4ccc(=O)[nH]c4=O)[C@H](O)[C@@H]3O)O2)c(=O)[nH]c1=O` [compound 46, UP4T], the pEC50 (human P2Y4 receptor) was 6.46 and the pEC50 (human P2Y2 receptor) was 6.74.

For `Nc1ccn([C@H]2C[C@H](O)[C@@H](COP(=O)(O)OP(=O)(O)OP(=O)(O)OP(=O)(O)OC[C@H]3O[C@@H](n4ccc(=O)[nH]c4=O)[C@H](O)[C@@H]3O)O2)c(=O)n1` [compound 51, UP4dC], the pEC50 (human P2Y6 receptor) was 4.80 and the pEC50 (human P2Y4 receptor) was 5.91.
